The subject of one series is A375 cells. Nature of the series: Invasion assay (Matrigel), A375. The following applies: 1 μM, 24 h, with greater potency than SCH772984. Format: cell-based, human. As to the method: (§1) Invasion assays. Cells were grown in medium containing 10% FBS in 24-well plates. The following day the cells were scratched with a sterile toothpick, washed with PBS, and overlayed with 90% Matrigel (cat. no. 354230, Corning) (200 μl/well) containing vehicle, BT2 or SCH772984 at 1 μM. The cells were immediately photographed under a 10× objective using an Olympus CKX41 microscope, incubated at 37° C. for 1 h, and medium (800 μl/well) containing 10% FBS with vehicle, BT2 or SCH772984 at 1 μM was added. After 24 or 48 h, the cells were again photographed under a 10× objective using the same microscope. To assess the effect of BT2 on melanoma cell migration, A375 and MeWo cells were incubated with 1 μM of BT2 or SCH772984, and A375 and MeWo migration into the denuded zone was quantified after 24 or 48 h, respectively.

Series [1] can be described thus: Systemic pharmacokinetics after oral (PO) and intraperitoneal (IP) administration. Format: in vivo. The following applies: male, CD-1, mouse, plasma, 30 mg/kg, male CD-1 mice; for bioavailability: PO, read-out: relative bioavailability. The procedure: Systemic pharmacokinetics after oral (PO) and intraperitoneal (IP) administration. Male CD-1 mice were injected with BT2 in Formulation 1, Formulation 2 or Formulation 3 (Table 4) and blood was collected after 0.083, 0.25, 0.5, 1, 2, 4, 8 and 24 h. BT2 was given PO or IP injection.
Approximately 110 μl blood samples were collected (n=3/time point, 3 mice/group) into tubes with EDTA-K2 anticoagulant. All blood samples were put on wet ice prior to centrifuging (6000 g, 4° C. for 5 min) to obtain plasma, which were stored at −70° C. or dry ice until analysis.
Plasma samples were analysed by LC-MS/MS (SCIEX ExionLC)-MS/MS (Triple Quad 6500+ With Analyst 1.7.1 AB Sciex). HPLC was performed using a Waters Acquity UPLC HSS T3 1.8 μm, 2.1×50 mm column with Mobile Phase A: H2O-0.025% FA+1 mM NH4OAc and Mobile Phase B: MeOH-0.025% FA+1 mM NH4OAc and injection volume 3 μl.
LC-MS/MS detection was performed for BT2 in plasma of mice given BT2 either by oral gavage (PO) or intraperitoneal (IP) injection. Plasma samples were processed (protein precipitation method used) and injected into LC-MS/MS (SCIEX ExionLC coupled with Triple Quad 6500+).

The next series concerns MeWo cells. Nature of the series: Invasion assay (Matrigel), MeWo. Format: cell-based, human. The following applies: 1 μM, 48 h, with greater potency than SCH772984. As to the method:
as §1

The test system of a further series is JUN. Nature of the series: Western blotting for JUN, MDA-MB-435 cells. Format: cell-based, human. The following applies: MDA-MB-435 cells (BRAF^V600E), 24 h, dose-dependent. The procedure: Western blotting. Cells were treated with compounds and times indicated and total cell lysates were prepared in RIPA buffer. Lysates (10 μg) were resolved by SDS-PAGE and transferred to Immobilon-P polyvinylidene difluoride (PVDF) membranes (Millipore, USA).
Membranes were blocked with 5% skim milk and incubated with rabbit monoclonal anti-c-Jun (Abcam, cat. no. ab32137; mouse, rat and human reactive) antibody, rabbit monoclonal anti-PD-1 (Abcam, cat. no. ab214421) antibody, mouse monoclonal β-actin antibody (Sigma-Aldrich, cat. no. A5316), anti-phospho-SAPK/JNK (Thr^183/Tyr^185) (98F2) (CST, cat. no. 4671) antibody, anti-phospho-p44/42 MAPK (ERK1/2) (Thr^202/Tyr^204) (D13.14.4E) (CST, cat. no. 4370) antibody, anti-phospho-p38 MAPK (Thr^180/Tyr^182) (D3F9) (CST, cat. no. 4511) antibody, anti-SAPK/JNK antibody (CST, cat. no. 9252), anti-p44/42 MAPK (ERK1/2) (137F5) antibody (CST, cat. no. 4695), anti-p38 MAPK antibody (CST, cat. no. 9212), anti-DUSP8 antibody (Abcam, cat. no. ab198175) or anti-c-MAF (BLR045F) antibody (Abcam, cat. no. ab243901). […] Chemiluminescence was detected using the Western Lightning Chemiluminescence system (Thermo Scientific, USA) and ImageQuant™ LAS 4000 biomolecular imager (GE Healthcare Life Sciences, USA). Band intensity in images generated with the LAS 4000 was quantified using NIH Image J. […]

Where “and” joins values, the source holds several entries; their conditions need not be identical. Identical values can stand only once. Like-named read-outs stand apart in the source and are kept apart here.

For the compound `CCOC(=O)Nc1ccc2c(c1)C(=O)N(CC)c1ccccc1O2` [BT2, (10-ethyl-11-oxo-10,11-dihydro-dibenzo[b,f][1,4]oxazepin-2-yl)-carbamic acid ethyl ester], the “invasion into the denuded zone of Matrigel” value in the series with A375 cells is reported as “suppressed”. In addition, in series [1] (ip, Formulation 1 (G2)), the area under the curve AUC(0-t) (in general, exposure summed from dosing to a finite time, without extrapolation to infinity) was 1440 ng·h/mL and 4.41 µM·h; the Cmax – broadly, the maximum level reached in the sampled fluid or tissue – is 1070 ng/mL and 3.29 µM; the Tmax (usually the time from dosing to the highest level) is 15 min; the half-life (in general, the time needed for the level to fall by half in the phase considered) is 523 min. For the same compound, in series [1] (ip, Formulation 3 (G6)), the AUC(0-t) is 1180 ng·h/mL and 3.62 µM·h; the Cmax is 2.59 µM and 846 ng/mL; the Tmax is 30 min; the half-life was 505 min. In series [1] (po, Formulation 1 (G1)), the bioavailability (usually the share of a dose that reaches the circulation, judged against a reference dose that is usually intravenous) came to 13.1%; the AUC(0-t) is 189 ng·h/mL and 0.579 µM·h; the highest concentration (Cmax) was 177 nM and 57.9 ng/mL; the Tmax was 15 min. For the same compound, in series [1] (po, Formulation 3 (G5)), the bioavailability was found to be 28.8%; the AUC(0-t) is 340 ng·h/mL and 1.04 µM·h; the Cmax is 53.7 ng/mL and 165 nM; the Tmax was 60 min. In the series with MeWo cells, the “invasion into the denuded zone of Matrigel” value is “suppressed”. Besides, the “JUN expression (Western blot)” value in the series with JUN is listed as “increased”.

The values are drawn from patent US20250352555A1, “METHOD OF INCREASING IMMUNE CELL ACTIVATION AND/OR TREATING CANCER USING DIBENZOXAZEPINONES” (VASCULAR THERAPEUTICS PTY LTD, priority 2022, published 2025).
